According to ChEMBL document CHEMBL5226390, “Synthesis and Structure-Activity Analysis of Icaritin Derivatives as Potential Tumor Growth Inhibitors of Hepatocellular Carcinoma Cells” (J Nat Prod, 2023):
In brackets after ≈: the same amount, converted by molar mass. Activity calls are given as the source filed them. The calls are words filed in the database; no cut-off is given here.

Key:
HepG2 [1] = assay: Induction of apoptosis in human HepG2 cells assessed as early apoptotic cells at 4 uM incubated for 48 hrs by AnnexinV-FITC/PI staining based flow cytometry (reference value: 3.41%); type: functional
SMMC-7721 [2] = assay: Potency index, ratio of Sorafenib IC50 to test compound IC50 for antiproliferative activity against human SMMC-7721 cells; type: functional
SMMC-7721 [3] = assay: Induction of cell cycle arrest in human SMMC-7721 cells assessed as downregulation of Cdc2 protein expression at 2 to 8 uM incubated for 48 hrs by western blot analysis; type: functional, cell-based; settings: dose 2-8 µM
Hep 3B2 = assay: Antiproliferative activity against human Hep3B cells assessed as reduction in cell viability incubated for 48 hrs by MTT assay; type: functional, cell-based
HepG2 [4] = assay: Induction of apoptosis in human HepG2 cells assessed as late apoptotic cells at 8 uM incubated for 48 hrs by AnnexinV-FITC/PI staining based flow cytometry (reference value: 3.23%); type: functional
SMMC-7721 [5] = assay: Induction of cell cycle arrest in human SMMC-7721 cells assessed as downregulation of p34 protein expression at 2 to 8 uM incubated for 48 hrs by western blot analysis; type: functional, cell-based; settings: dose 2-8 µM
SMMC-7721 [6] = assay: Induction of apoptosis in human SMMC-7721 cells assessed as late apoptotic cells at 8 uM incubated for 48 hrs by AnnexinV-FITC/PI staining based flow cytometry (reference value: 1.51%); type: functional
HepG2 [7] = assay: Induction of cell cycle arrest in human HepG2 cells assessed as accumulation of cells at G0/G1 phase at 4 uM incubated for 48 hrs by PI staining based flow cytometry (reference value: 64.11%); type: functional
HepG2 [8] = assay: Induction of cell cycle arrest in human HepG2 cells assessed as downregulation of Cdc2 protein expression at 2 to 8 uM incubated for 48 hrs by western blot analysis; type: functional, cell-based; settings: dose 2-8 µM
SMMC-7721 [9] = assay: Induction of apoptosis in human SMMC-7721 cells assessed as early apoptotic cells at 4 uM incubated for 48 hrs by AnnexinV-FITC/PI staining based flow cytometry (reference value: 1.13%); type: functional
SMMC-7721 [10] = assay: Induction of apoptosis in human SMMC-7721 cells assessed as early apoptotic cells at 8 uM incubated for 48 hrs by AnnexinV-FITC/PI staining based flow cytometry (reference value: 1.13%); type: functional
HepG2 [11] = assay: Induction of cell cycle arrest in human HepG2 cells assessed as accumulation of cells at S phase at 8 uM incubated for 48 hrs by PI staining based flow cytometry (reference value: 18%); type: functional
SMMC-7721 [12] = assay: Induction of cell cycle arrest in human SMMC-7721 cells assessed as accumulation of cells at G2/M phase at 8 uM incubated for 48 hrs by PI staining based flow cytometry (reference value: 15.49%); type: functional
HepG2 [13] = assay: Antiproliferative activity against human HepG2 cells assessed as reduction in cell viability incubated for 48 hrs by MTT assay; type: functional, cell-based; settings: HepG2, 48 h
HepG2 [14] = assay: Induction of cell cycle arrest in human HepG2 cells assessed as downregulation of CDK4 protein expression at 2 to 8 uM incubated for 48 hrs by western blot analysis; type: functional, cell-based; settings: dose 2-8 µM
SMMC-7721 [15] = assay: Induction of apoptosis in human SMMC-7721 cells assessed as viable cells at 8 uM incubated for 48 hrs by AnnexinV-FITC/PI staining based flow cytometry (reference value: 85.1%); type: functional; settings: read-out: Activity
HepG2 [16] = assay: Induction of cell cycle arrest in human HepG2 cells assessed as accumulation of cells at G0/G1 phase at 2 uM incubated for 48 hrs by PI staining based flow cytometry (reference value: 64.11%); type: functional
SMMC-7721 [17] = assay: Induction of apoptosis in human SMMC-7721 cells assessed as viable cells at 4 uM incubated for 48 hrs by AnnexinV-FITC/PI staining based flow cytometry (reference value: 85.1%); type: functional; settings: read-out: Activity
SMMC-7721 [18] = assay: Induction of cell cycle arrest in human SMMC-7721 cells assessed as accumulation of cells at G0/G1 phase at 2 uM incubated for 48 hrs by PI staining based flow cytometry (reference value: 59.57%); type: functional
SMMC-7721 [19] = assay: Induction of cell cycle arrest in human SMMC-7721 cells assessed as accumulation of cells at S phase at 2 uM incubated for 48 hrs by PI staining based flow cytometry (reference value: 24.94%); type: functional
HepG2 [20] = assay: Induction of apoptosis in human HepG2 cells assessed as late apoptotic cells at 2 uM incubated for 48 hrs by AnnexinV-FITC/PI staining based flow cytometry (reference value: 3.23%); type: functional
HepG2 [21] = assay: Potency index, ratio of Sorafenib IC50 to test compound IC50 for antiproliferative activity against human HepG2 cells; type: functional
SMMC-7721 [22] = assay: Induction of cell cycle arrest in human SMMC-7721 cells assessed as upregulation of p21 protein expression at 2 to 8 uM incubated for 48 hrs by western blot analysis; type: functional, cell-based; settings: dose 2-8 µM
HepG2 [23] = assay: Induction of apoptosis in human HepG2 cells assessed as early apoptotic cells at 8 uM incubated for 48 hrs by AnnexinV-FITC/PI staining based flow cytometry (reference value: 3.41%); type: functional
HepG2 [24] = assay: Induction of apoptosis in human HepG2 cells assessed as increase in number of detached cells with fewer cells at 2 to 8 uM incubated for 48 hrs by phase contrast microscopy; type: functional, cell-based; settings: dose 2-8 µM
SMMC-7721 [25] = assay: Induction of cell cycle arrest in human SMMC-7721 cells assessed as accumulation of cells at G2/M phase at 2 uM incubated for 48 hrs by PI staining based flow cytometry (reference value: 15.49%); type: functional
SMMC-7721 [26] = assay: Induction of apoptosis in human SMMC-7721 cells assessed as late apoptotic cells at 2 uM incubated for 48 hrs by AnnexinV-FITC/PI staining based flow cytometry (reference value: 1.51%); type: functional
HepG2 [27] = assay: Induction of cell cycle arrest in human HepG2 cells assessed as accumulation of cells at S phase at 4 uM incubated for 48 hrs by PI staining based flow cytometry (reference value: 18%); type: functional
SMMC-7721 [28] = assay: Induction of cell cycle arrest in human SMMC-7721 cells assessed as accumulation of cells at G0/G1 phase at 8 uM incubated for 48 hrs by PI staining based flow cytometry (reference value: 59.57%); type: functional
SMMC-7721 [29] = assay: Induction of cell cycle arrest in human SMMC-7721 cells assessed as accumulation of cells at S phase at 8 uM incubated for 48 hrs by PI staining based flow cytometry (reference value: 24.94%); type: functional
HepG2 [30] = assay: Induction of apoptosis in human HepG2 cells assessed as late apoptotic cells at 4 uM incubated for 48 hrs by AnnexinV-FITC/PI staining based flow cytometry (reference value: 3.23%); type: functional
SMMC-7721 [31] = assay: Induction of cell cycle arrest in human SMMC-7721 cells assessed as downregulation of CDK4 protein expression at 2 to 8 uM incubated for 48 hrs by western blot analysis; type: functional, cell-based; settings: dose 2-8 µM
SMMC-7721 [32] = assay: Induction of apoptosis in human SMMC-7721 cells assessed as early apoptotic cells at 2 uM incubated for 48 hrs by AnnexinV-FITC/PI staining based flow cytometry (reference value: 1.13%); type: functional
[33] = Solubility of the compound in water incubated for 24 hrs under stirring conditions by HPLC analysis; type: physicochemical
SMMC-7721 [34] = assay: Induction of apoptosis in human SMMC-7721 cells assessed as necrotic cells at 4 uM incubated for 48 hrs by AnnexinV-FITC/PI staining based flow cytometry (reference value: 12.3%); type: functional

For COc1ccc(-c2oc3c(CC=C(C)C)c(OCCN4CCCC4)cc(O)c3c(=O)c2O[C@H]2O[C@H](C)[C@@H](O)[C@H](O)[C@@H]2O)cc1, the Activity (HepG2 [1]) was 5.14%, the “Ratio IC50” value (SMMC-7721 [2]) was 2 and the Activity (SMMC-7721 [3]) was “Active”. For the same compound, the IC50 (Hep 3B2) was 3.9 µM, the Activity (HepG2 [4]) was 17.7% and the Activity (SMMC-7721 [5]) was “Active”. For the same compound, the Activity (SMMC-7721 [6]) was 8.46%, the Activity (HepG2 [7]) was 80.03% and the Activity (HepG2 [8]) was “Active”. The Activity (SMMC-7721 [9]) was 2.54%, the Activity (SMMC-7721 [10]) was 3.28% and the Activity (HepG2 [11]) was 2.47%. For the same compound, the Activity (SMMC-7721 [12]) was 8.88%, the IC50 (HepG2 [13]) was 7.6 µM and the Activity (HepG2 [14]) was “Active”. For the same compound, the viability at 8 µM (SMMC-7721 [15]) was 66.2%, the Activity (HepG2 [16]) was 68.79% and the viability at 4 µM (SMMC-7721 [17]) was 89.6%. It also gave an Activity (SMMC-7721 [18]) of 63.01%, an Activity (SMMC-7721 [19]) of 23.71% and an Activity (HepG2 [20]) of 6.26%. The “Ratio IC50” value (HepG2 [21]) was 2, the Activity (SMMC-7721 [22]) was “Active” and the Activity (HepG2 [23]) was 3.42%. The Activity (HepG2 [24]) was “Active”, the Activity (SMMC-7721 [25]) was 13.29% and the Activity (SMMC-7721 [26]) was 5.9%. For the same compound, the Activity (HepG2 [27]) was 9.28%, the Activity (SMMC-7721 [28]) was 78.65% and the Activity (SMMC-7721 [29]) was 12.47%. The Activity (HepG2 [30]) was 5.47%, the Activity (SMMC-7721 [31]) was “Active” and the Activity (SMMC-7721 [32]) was 1.73%. For the same compound, the solubility at 24 h [33] was 11.8 mg/mL (≈ 19.3 mM) and the Activity (SMMC-7721 [34]) was 0.956%.
